Assay results from ChEMBL document CHEMBL1149526, “Synthesis and SAR of selective benzothiophene, benzofuran, and indole-based peroxisome proliferator-activated receptor delta agonists” (Bioorg Med Chem Lett, 2007).

Target: T1, Peroxisome proliferator-activated receptor alpha (Homo sapiens, UniProt Q07869)
T1 sequence (Q07869 whole entry): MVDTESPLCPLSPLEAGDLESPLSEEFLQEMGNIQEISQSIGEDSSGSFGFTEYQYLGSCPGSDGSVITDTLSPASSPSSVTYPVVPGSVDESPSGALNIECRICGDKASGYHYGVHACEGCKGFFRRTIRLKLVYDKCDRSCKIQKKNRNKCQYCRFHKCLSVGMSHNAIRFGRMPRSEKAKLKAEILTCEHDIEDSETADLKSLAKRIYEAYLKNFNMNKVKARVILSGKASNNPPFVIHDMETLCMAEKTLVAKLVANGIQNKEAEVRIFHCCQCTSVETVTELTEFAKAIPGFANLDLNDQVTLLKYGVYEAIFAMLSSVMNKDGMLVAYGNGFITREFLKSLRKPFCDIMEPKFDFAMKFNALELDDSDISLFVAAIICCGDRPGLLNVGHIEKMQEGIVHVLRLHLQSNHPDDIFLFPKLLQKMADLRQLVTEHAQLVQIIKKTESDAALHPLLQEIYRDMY

SMILES | IC50 [nM]
O=C(O)Cn1ccc2cc(OCc3ccc(Oc4ccc(C(F)(F)F)cc4)cc3)ccc21 | 562
Cc1nc(-c2ccc(C(F)(F)F)cc2)sc1COc1ccc2c(CC(=O)O)coc2c1 | 679
O=C(O)Cc1coc2cc(OCc3ccccc3COc3ccc(C(F)(F)F)cc3)ccc12 | > 10000
Cc1nc(C(F)(F)F)sc1COc1ccc2c(ccn2CC(=O)O)c1 | 550
O=C(O)Cn1ccc2cc(OCc3cccc(COc4ccc(C(F)(F)F)cc4)c3)ccc21 | 179
Cc1cc2c(CC(=O)O)csc2cc1OCc1sc(-c2ccc(C(F)(F)F)cc2)nc1C | 683
O=C(O)Cn1ccc2cc(OCc3ccccc3COc3ccc(C(F)(F)F)cc3)ccc21 | > 10000
Cc1nc(-c2ccc(C(F)(F)F)cc2)sc1COc1cc(Cl)c2c(CC(=O)O)csc2c1 | 1040
O=C(O)Cc1coc2cc(OCc3cccc(COc4ccc(C(F)(F)F)cc4)c3)ccc12 | 2500
Cc1nc(C(F)(F)F)sc1CSc1ccc2c(ccn2CC(=O)O)c1 | 172
O=C(O)Cc1coc2cc(OCc3ccc(COc4ccc(C(F)(F)F)cc4)cc3)ccc12 | 2380
Cc1cc2c(CC(=O)O)csc2cc1OCc1ccccc1COc1ccc(C(F)(F)F)cc1 | 4680

Other lines, results leading:

IC50 [nM] | SMILES
2380 | O=C(O)Cc1coc2cc(OCc3cc(-c4ccc(Cl)cc4)on3)ccc12
7860 | O=C(O)Cc1csc2cc(OCc3ccccc3COc3ccc(C(F)(F)F)cc3)ccc12
1350 | O=C(O)Cc1csc2cc(OCc3cc(-c4ccc(C(F)(F)F)cc4)on3)cc(Cl)c12
3840 | O=C(O)Cc1csc2cc(OCc3cc(-c4ccc(Cl)cc4)on3)cc(Cl)c12
311 | Cc1cc(OCc2cc(-c3ccc(Cl)cc3)on2)cc2scc(CC(=O)O)c12
835 | O=C(O)Cn1ccc2cc(OCc3cc(-c4ccc(C(F)(F)F)cc4)on3)ccc21
3820 | O=C(O)Cc1csc2cc(OCc3cc(-c4ccc(Cl)cc4)on3)ccc12
261 | O=C(O)Cc1csc2cc(OCc3cc(-c4ccc(C(F)(F)F)cc4)on3)ccc12
229 | O=C(O)Cc1csc2cc(OCc3ccc(COc4ccc(C(F)(F)F)cc4)cc3)ccc12
482 | Cc1nc(-c2ccc(C(F)(F)F)cc2)sc1COc1ccc2c(CC(=O)O)csc2c1
1420 | O=C(O)Cc1coc2cc(OCc3cc(-c4ccc(C(F)(F)F)cc4)on3)ccc12
1470 | Cc1cc(OCc2cc(-c3ccc(C(F)(F)F)cc3)on2)cc2scc(CC(=O)O)c12
963 | O=C(O)Cc1csc2cc(OCc3cccc(COc4ccc(C(F)(F)F)cc4)c3)ccc12
5810 | Cc1cc2c(CC(=O)O)csc2cc1OCc1cc(-c2ccc(Cl)cc2)on1

Target: T2, Peroxisome proliferator-activated receptor delta (Homo sapiens, UniProt Q03181)
T2 sequence (Q03181 whole entry): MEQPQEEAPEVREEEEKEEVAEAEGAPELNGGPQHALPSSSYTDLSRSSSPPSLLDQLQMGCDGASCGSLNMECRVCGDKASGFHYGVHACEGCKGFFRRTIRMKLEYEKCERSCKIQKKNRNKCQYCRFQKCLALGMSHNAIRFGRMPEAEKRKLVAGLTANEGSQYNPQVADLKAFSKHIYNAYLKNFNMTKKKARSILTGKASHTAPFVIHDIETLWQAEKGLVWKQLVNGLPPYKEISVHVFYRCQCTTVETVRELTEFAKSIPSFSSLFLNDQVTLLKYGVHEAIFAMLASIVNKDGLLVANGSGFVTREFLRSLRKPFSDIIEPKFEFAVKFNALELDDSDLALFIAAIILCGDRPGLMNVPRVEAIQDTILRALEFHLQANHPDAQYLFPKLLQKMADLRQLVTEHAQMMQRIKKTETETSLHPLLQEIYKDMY
Format: functional, cell-based, HepG2

SMILES | EC50 [nM]
O=C(O)Cn1ccc2cc(OCc3ccc(Oc4ccc(C(F)(F)F)cc4)cc3)ccc21 | 2810
Cc1nc(-c2ccc(C(F)(F)F)cc2)sc1COc1ccc2c(CC(=O)O)coc2c1 | 243
O=C(O)Cc1coc2cc(OCc3ccccc3COc3ccc(C(F)(F)F)cc3)ccc12 | 3120
Cc1nc(C(F)(F)F)sc1COc1ccc2c(ccn2CC(=O)O)c1 | 223
O=C(O)Cn1ccc2cc(OCc3cccc(COc4ccc(C(F)(F)F)cc4)c3)ccc21 | 254
O=C(O)Cn1ccc2cc(OCc3ccccc3COc3ccc(C(F)(F)F)cc3)ccc21 | 3080
Cc1nc(-c2ccc(C(F)(F)F)cc2)sc1COc1cc(Cl)c2c(CC(=O)O)csc2c1 | 227
Cc1nc(C(F)(F)F)sc1CSc1ccc2c(ccn2CC(=O)O)c1 | 4
O=C(O)Cc1coc2cc(OCc3ccc(COc4ccc(C(F)(F)F)cc4)cc3)ccc12 | 3440

More lines, now with the values ahead:

EC50 [nM] | SMILES
323 | O=C(O)Cc1coc2cc(OCc3cc(-c4ccc(Cl)cc4)on3)ccc12
2230 | O=C(O)Cc1csc2cc(OCc3ccccc3COc3ccc(C(F)(F)F)cc3)ccc12
2360 | O=C(O)Cc1csc2cc(OCc3cc(-c4ccc(C(F)(F)F)cc4)on3)cc(Cl)c12
6360 | O=C(O)Cc1csc2cc(OCc3cc(-c4ccc(Cl)cc4)on3)cc(Cl)c12
638 | Cc1cc(OCc2cc(-c3ccc(Cl)cc3)on2)cc2scc(CC(=O)O)c12
1390 | O=C(O)Cn1ccc2cc(OCc3cc(-c4ccc(C(F)(F)F)cc4)on3)ccc21
226 | O=C(O)Cc1csc2cc(OCc3cc(-c4ccc(Cl)cc4)on3)ccc12
305 | O=C(O)Cc1csc2cc(OCc3cc(-c4ccc(C(F)(F)F)cc4)on3)ccc12
1610 | O=C(O)Cc1coc2cc(OCc3cc(-c4ccc(C(F)(F)F)cc4)on3)ccc12
561 | Cc1cc(OCc2cc(-c3ccc(C(F)(F)F)cc3)on2)cc2scc(CC(=O)O)c12
656 | Cc1cc2c(CC(=O)O)csc2cc1OCc1cc(-c2ccc(Cl)cc2)on1

Target: T2, Peroxisome proliferator-activated receptor delta
Remark: another data set of the same source

SMILES | IC50 [nM]
O=C(O)Cn1ccc2cc(OCc3ccc(Oc4ccc(C(F)(F)F)cc4)cc3)ccc21 | 91
Cc1nc(-c2ccc(C(F)(F)F)cc2)sc1COc1ccc2c(CC(=O)O)coc2c1 | 14
O=C(O)Cc1coc2cc(OCc3ccccc3COc3ccc(C(F)(F)F)cc3)ccc12 | 662
Cc1nc(C(F)(F)F)sc1COc1ccc2c(ccn2CC(=O)O)c1 | 6.8
O=C(O)Cn1ccc2cc(OCc3cccc(COc4ccc(C(F)(F)F)cc4)c3)ccc21 | 13
Cc1cc2c(CC(=O)O)csc2cc1OCc1sc(-c2ccc(C(F)(F)F)cc2)nc1C | 237
O=C(O)Cn1ccc2cc(OCc3ccccc3COc3ccc(C(F)(F)F)cc3)ccc21 | 734
Cc1nc(-c2ccc(C(F)(F)F)cc2)sc1COc1cc(Cl)c2c(CC(=O)O)csc2c1 | 58
Cc1nc(C(F)(F)F)sc1CSc1ccc2c(ccn2CC(=O)O)c1 | 2.8
O=C(O)Cc1coc2cc(OCc3ccc(COc4ccc(C(F)(F)F)cc4)cc3)ccc12 | 81

The remaining lines, values ahead:

IC50 [nM] | SMILES
81 | O=C(O)Cc1coc2cc(OCc3cc(-c4ccc(Cl)cc4)on3)ccc12
244 | O=C(O)Cc1csc2cc(OCc3ccccc3COc3ccc(C(F)(F)F)cc3)ccc12
97 | O=C(O)Cc1csc2cc(OCc3cc(-c4ccc(C(F)(F)F)cc4)on3)cc(Cl)c12
375 | O=C(O)Cc1csc2cc(OCc3cc(-c4ccc(Cl)cc4)on3)cc(Cl)c12
23 | Cc1cc(OCc2cc(-c3ccc(Cl)cc3)on2)cc2scc(CC(=O)O)c12
31 | O=C(O)Cn1ccc2cc(OCc3cc(-c4ccc(C(F)(F)F)cc4)on3)ccc21
7.7 | O=C(O)Cc1csc2cc(OCc3cc(-c4ccc(Cl)cc4)on3)ccc12
11 | O=C(O)Cc1csc2cc(OCc3cc(-c4ccc(C(F)(F)F)cc4)on3)ccc12
25 | O=C(O)Cc1coc2cc(OCc3cc(-c4ccc(C(F)(F)F)cc4)on3)ccc12
37 | Cc1cc(OCc2cc(-c3ccc(C(F)(F)F)cc3)on2)cc2scc(CC(=O)O)c12
37 | Cc1cc2c(CC(=O)O)csc2cc1OCc1cc(-c2ccc(Cl)cc2)on1
